Test results published in patent US7335814B2, “Transgenic cells expressing glucosyltransferase nucleic acids” (The University of York, priority 2000, dated 2008).

Experiments:
Assay type in all cases: biochemical
[1] = biological target: T1, recombinant GTase A42 (Arabidopsis thaliana, UniProt O23401); assay: Specific activity of recombinant GTase producing glucose ester against lignin precursors (HPLC); conditions: 0.5 ml of potential substrates, 5 mM UDPG, 0.2 μg GTase, 200 μl, 20° C., 30 min
T1 construct: made in house; host or cells: E. coli
T1 sequence (O23401 1-479): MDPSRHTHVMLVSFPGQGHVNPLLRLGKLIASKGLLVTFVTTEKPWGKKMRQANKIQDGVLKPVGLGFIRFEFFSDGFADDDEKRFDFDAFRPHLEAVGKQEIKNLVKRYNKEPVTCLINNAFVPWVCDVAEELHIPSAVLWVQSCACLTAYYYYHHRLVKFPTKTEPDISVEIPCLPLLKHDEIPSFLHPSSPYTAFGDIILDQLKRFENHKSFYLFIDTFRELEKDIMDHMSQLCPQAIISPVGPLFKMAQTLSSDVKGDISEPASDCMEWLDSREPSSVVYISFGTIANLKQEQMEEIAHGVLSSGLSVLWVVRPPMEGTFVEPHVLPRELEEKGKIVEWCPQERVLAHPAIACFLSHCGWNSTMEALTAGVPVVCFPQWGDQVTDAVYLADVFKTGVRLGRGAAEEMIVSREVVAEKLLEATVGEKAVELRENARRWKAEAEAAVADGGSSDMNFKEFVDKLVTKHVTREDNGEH

[2] = biological target: T2, recombinant GTase A233 (Arabidopsis thaliana, UniProt Q8W491); assay: Specific activity of recombinant GTase producing O-glucosides against lignin precursors (HPLC); conditions: 30° C.; ND = not detected
T2 construct: made in house; host or cells: E. coli

[3] = biological target: T3, recombinant GTase A43 (Arabidopsis thaliana, UniProt O23402); assay: Specific activity of recombinant GTase producing glucose ester against lignin precursors (HPLC); conditions: 0.5 ml of potential substrates, 5 mM UDPG, 0.2 μg GTase, 200 μl, 20° C., 30 min
T3 construct: made in house; host or cells: E. coli

[4] = biological target: T4, recombinant GTase A320 (Arabidopsis thaliana, UniProt Q9LVF0); assay: as above; conditions: 5 mM UDPG, 0.2 μg GTase, 200 μl, 20° C., 30 min
T4 construct: made in house; host or cells: E. coli
T4 sequence (Q9LVF0 1-496): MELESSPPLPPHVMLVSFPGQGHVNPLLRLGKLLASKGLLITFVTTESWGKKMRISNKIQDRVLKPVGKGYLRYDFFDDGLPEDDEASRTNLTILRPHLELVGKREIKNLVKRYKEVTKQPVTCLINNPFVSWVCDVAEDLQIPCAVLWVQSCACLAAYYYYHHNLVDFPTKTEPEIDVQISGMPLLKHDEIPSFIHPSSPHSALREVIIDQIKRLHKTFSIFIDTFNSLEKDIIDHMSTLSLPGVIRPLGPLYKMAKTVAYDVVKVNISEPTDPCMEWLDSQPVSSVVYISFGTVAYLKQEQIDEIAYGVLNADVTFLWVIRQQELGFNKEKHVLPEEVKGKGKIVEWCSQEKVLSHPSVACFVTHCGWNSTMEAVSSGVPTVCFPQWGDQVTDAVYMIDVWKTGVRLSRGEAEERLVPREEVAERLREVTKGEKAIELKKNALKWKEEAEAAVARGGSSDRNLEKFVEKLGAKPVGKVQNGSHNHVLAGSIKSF

[5] = biological target: T5, recombinant GTase A41 (Arabidopsis thaliana, UniProt Q5XF20); assay: as above; conditions: 5 mM UDPG, 0.2 μg GTase, 200 μl, 20° C., 30 min
T5 construct: made in house; host or cells: E. coli
T5 sequence (Q5XF20 7-490): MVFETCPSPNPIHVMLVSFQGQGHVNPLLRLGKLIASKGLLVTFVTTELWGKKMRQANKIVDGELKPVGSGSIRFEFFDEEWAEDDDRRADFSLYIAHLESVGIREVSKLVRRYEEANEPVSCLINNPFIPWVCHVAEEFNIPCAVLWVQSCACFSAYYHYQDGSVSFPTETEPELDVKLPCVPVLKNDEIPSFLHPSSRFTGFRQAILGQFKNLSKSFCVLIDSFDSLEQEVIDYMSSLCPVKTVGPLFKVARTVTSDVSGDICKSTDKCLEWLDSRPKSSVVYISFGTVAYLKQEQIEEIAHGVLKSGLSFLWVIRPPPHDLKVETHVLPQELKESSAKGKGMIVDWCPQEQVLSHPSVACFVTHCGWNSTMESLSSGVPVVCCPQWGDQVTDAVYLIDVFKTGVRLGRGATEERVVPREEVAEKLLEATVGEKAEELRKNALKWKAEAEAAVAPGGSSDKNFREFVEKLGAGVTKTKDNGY

[6] = biological target: T6, recombinant GTase A962 (Arabidopsis thaliana, UniProt O82382); assay: Specific activity of recombinant GTase producing O-glucosides against lignin precursors (HPLC); conditions: 30° C.; ND = not detected
T6 construct: made in house; host or cells: E. coli
T6 sequence (O82382 1-474): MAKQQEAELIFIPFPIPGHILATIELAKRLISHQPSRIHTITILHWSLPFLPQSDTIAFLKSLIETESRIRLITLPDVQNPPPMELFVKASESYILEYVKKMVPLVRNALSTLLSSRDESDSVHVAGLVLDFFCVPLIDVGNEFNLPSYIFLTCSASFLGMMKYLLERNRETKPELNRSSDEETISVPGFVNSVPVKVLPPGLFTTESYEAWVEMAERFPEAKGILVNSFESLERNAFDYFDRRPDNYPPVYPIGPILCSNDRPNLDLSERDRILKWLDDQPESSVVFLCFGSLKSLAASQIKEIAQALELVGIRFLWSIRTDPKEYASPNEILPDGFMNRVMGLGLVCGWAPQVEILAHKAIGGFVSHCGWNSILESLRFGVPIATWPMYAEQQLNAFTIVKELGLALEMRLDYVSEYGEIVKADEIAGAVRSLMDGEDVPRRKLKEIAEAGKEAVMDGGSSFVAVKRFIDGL

[7] = biological target: T5, recombinant GTase A41; assay: Kinetic studies (Michaelis-Menten) on recombinant GTase producing glucose esters; conditions: glucose ester formation
[8] = biological target: T7, recombinant GTase A119 (Arabidopsis thaliana, UniProt Q9LVR1); assay: Kinetic studies (Michaelis-Menten) on recombinant GTase producing O-glucosides; conditions: O-glucoside formation
T7 construct: made in house; host or cells: E. coli
T7 sequence (Q9LVR1 1-481): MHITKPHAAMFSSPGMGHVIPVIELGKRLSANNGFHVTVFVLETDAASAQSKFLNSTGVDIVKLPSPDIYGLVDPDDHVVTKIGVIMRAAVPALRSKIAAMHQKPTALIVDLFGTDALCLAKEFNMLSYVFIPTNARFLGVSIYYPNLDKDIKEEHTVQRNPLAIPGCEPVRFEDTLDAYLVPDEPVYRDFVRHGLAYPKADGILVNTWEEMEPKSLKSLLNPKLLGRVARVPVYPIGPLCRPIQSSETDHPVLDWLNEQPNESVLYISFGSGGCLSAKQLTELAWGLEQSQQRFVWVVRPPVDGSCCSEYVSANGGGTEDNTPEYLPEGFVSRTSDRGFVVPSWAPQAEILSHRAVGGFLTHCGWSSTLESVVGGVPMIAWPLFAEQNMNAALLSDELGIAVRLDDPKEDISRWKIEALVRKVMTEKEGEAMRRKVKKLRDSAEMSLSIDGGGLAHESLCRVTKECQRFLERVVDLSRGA

[9] = biological target: T1, recombinant GTase A42; assay: Kinetic studies (Michaelis-Menten) on recombinant GTase producing glucose esters; conditions: glucose ester formation

Compound | Specific activity of A42 (substrate converted to glucose ester) [1] [nkat/mg] | Specific activity of A233 (substrate converted to 4-O-glucoside) [2] [nkat/mg] | Specific activity of A43 (substrate converted to glucose ester) [3] [nkat/mg] | Specific activity of A320 (substrate converted to glucose ester) [4] [nkat/mg] | Specific activity of A41 (substrate converted to glucose ester) [5] [nkat/mg] | Specific activity of A962 (substrate converted to 4-O-glucoside) [6] [nkat/mg] | Vmax (A41) [7] [nkat/mg] | Vmax (A119) [8] [nkat/mg] | Vmax (A42) [9] [nkat/mg]
O=C(O)/C=C/c1ccc(O)cc1 [p-coumaric acid] | 4.69 | 0.09 | 0.03 | 0.05 | 13.53 | 0.01 |  |  | 
COc1cc(/C=C/C(=O)O)ccc1O [Ferulic acid, ferulic acid] | 15.63 | 0.37 | 0.04 | 0.54 | 6.64 |  | 11.35 | 18.87 | 18.35
